Several values for one entry are separate records, joined by “and”; a condition that tells them apart may be missing. Equal entries are not always repeated. Where two headings read alike, the source gives them in different places.
Columns and labels:
[1] = target: T1, NUPR1 (Homo sapiens, UniProt O60356); experiment: Isothermal titration calorimetry (ITC) binding to NUPR1; details: 25 °C
T1 construct: made in house
T1 sequence (O60356 1-82): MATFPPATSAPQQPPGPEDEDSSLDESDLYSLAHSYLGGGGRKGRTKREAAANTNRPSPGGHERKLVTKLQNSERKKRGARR
Method: The binding of the ZZW-115-derived compounds to NUPR1 was determined as described by using a high sensitivity isothermal titration calorimeter Auto-iTC200 (MicroCal, Malvern-Panalytical, Malvern, UK). Protein samples and solutions were properly degassed. Experiments were performed with freshly prepared protein solutions at 25 °C. A solution of NUPR1 (20 μM, in sodium phosphate 20 mM, pH 7.0, 2% DMSO) in the calorimetric cell was titrated with a solution of each compound (200 μM, in sodium phosphate 20 mM pH 7.0, 2% DMSO). The inhibitors were dissolved in the same buffer used for the protein. A standard protocol was employed: 19 titrant injections with 2 μL compound solution were programmed with a time spacing of 150 s, a stirring speed of 750 rpm, and a reference power of 10 μcal/s. The heat evolved after each ligand injection was calculated from the integral of the calorimetric signal. The heat due to the binding reaction was obtained as the difference between the reaction heat and the corresponding heat of injection, the latter estimated as a constant value throughout the experiment, and included as an adjustable parameter in the analysis. Control experiments (with the compounds injected into the buffer) were performed under the same experimental conditions.
The association constant (Ka), the enthalpy change (ΔH) and the stoichiometry (n) of the binding reaction were obtained through nonlinear regression analysis of experimental data to a model assuming a single ligand binding site for the protein. Experiments were performed in replicate and data were analyzed using in-house-developed software implemented in Origin 7 (OriginLab).
The interaction between ZZW-115-Derived compounds and NUPR1 was studied by using ITC, the gold-standard technique in binding-affinity determination, to test our theoretical prediction. […] From the thermogram (thermal power as a function of time), the binding isotherm (ligand-normalized heat as a function of the molar ratio) was obtained through integration of the individual heat effect associated with injection of each ligand solution (Figure 3). We used a nonlinear least-squares regression analysis employing a model that considered a single binding site in NUPR1 to estimate binding parameters such as the dissociation constant and the binding enthalpy.

[2] = test system: PDAC001T cells; experiment: Cell viability assay (PrestoBlue); type: cell-based; details: Homo sapiens; PDAC001T (basal subtype), 72 h
Source text: (§1) Primary pancreatic cancer cells PDAC001T, PDAC012T, PDAC021T, PDAC081T, PDAC082T, PDAC087T, PDAC088T, PDAC089T, and PDAC115T were obtained from the PaCaOmics clinical trial registered at www.clinicaltrials.gov (accessed on 2 October 2021) with registration number NCT01692873. We included PDAC samples from both echoendoscopic ultrasound-guided fine-needle (EUS-FNA) biopsies for patients with unresectable tumors and from surgical specimens for patients undergoing surgery. The tumor samples of these patients were used to generate patient-derived xenograft in nude mice as previously reported. Xenografts obtained from mice were split into several small pieces and used for cell culture in a biosafety chamber: after fine mincing, they were treated with collagenase type V (ref C9263; Sigma-Aldrich, St. Louis, MO, USA) and trypsin/EDTA (ref 25200-056; Gibco, Life Technologies, Grand Island, NY, USA) and were suspended in Dulbecco’s modified Eagle’s medium supplemented with 1% w/w penicillin/streptomycin (Gibco, Life Technologies, Paisley, UK) and 10% fetal bovine serum (Lonza Inc., Walkersville, MD, USA). After centrifugation, cells were resuspended in serum-free ductal media adapted from Schreiber et al. at 37 °C in a 5% CO2 incubator. Amplified cells were stored in liquid nitrogen as previously reported. Cells were weaned from antibiotics for ≥48 h before testing.
(§2) Cell viability was evaluated in ten pancreatic cancer cell lines, including MiaPaCa-2, and nine primary pancreatic cancer-derived cell lines: PDAC001T, PDAC012T, PDAC021T, PDAC081T, PDAC082T, PDAC087T, PDAC088T, PDAC089T, and PDAC115T. MiaPaCa-2 cells were obtained from ATCC (Manassas, VA, USA) and maintained in DMEM (Invitrogen, Cergy-Pontoise, France), supplemented with 10% […] at 37 °C with 5% CO2. The primary pancreatic cancer-derived cells were cultured in serum free ductal media (SFDM) following a procedure adapted from those previously described, without antibiotic, and incubated at 37 °C in a 5% CO2 incubator. Cells were plated in 96-well plates (5000 cells/well) overnight. Then, the media were supplemented with the compounds to be tested at 0–100 µM concentration, and the samples were incubated for another additional 72 h before performing the measurement. Cell viability was estimated after addition of PrestoBlue™ reagent (Life Technologies, Paris, France) for 3 h according to the PrestoBlue™ cell viability reagent protocol provided by the supplier. Cell viability was normalized when comparing to untreated cell rates. Experiments were performed in triplicate and each set was repeated three times, with similar results.

[3] = test system: PDAC012T cells; experiment: Cell viability assay (PrestoBlue); type: cell-based; details: Homo sapiens; PDAC012T (classical subtype), 72 h
Source text: as §1, §2

[4] = test system: PDAC021T cells; experiment: Cell viability assay (PrestoBlue); type: cell-based; details: Homo sapiens; PDAC021T (basal subtype), 72 h
Source text: as §1, §2

[5] = test system: PDAC081T cells; experiment: Cell viability assay (PrestoBlue); type: cell-based; details: Homo sapiens; PDAC081T (classical subtype), 72 h
Source text: as §1, §2

[6] = test system: PDAC082T cells; experiment: Cell viability assay (PrestoBlue); type: cell-based; details: Homo sapiens; PDAC082T (classical subtype), 72 h
Source text: as §1, §2

[7] = test system: PDAC087T cells; experiment: Cell viability assay (PrestoBlue); type: cell-based; details: Homo sapiens; PDAC087T (basal subtype), 72 h
Source text: as §1, §2

[8] = test system: PDAC088T cells; experiment: Cell viability assay (PrestoBlue); type: cell-based; details: Homo sapiens; PDAC088T (classical subtype), 72 h
Source text: as §1, §2

[9] = test system: PDAC089T cells; experiment: Cell viability assay (PrestoBlue); type: cell-based; details: Homo sapiens; PDAC089T (derived from a liver metastasis), 72 h
Source text: as §1, §2

[10] = test system: PDAC115T cells; experiment: Cell viability assay (PrestoBlue); type: cell-based; details: Homo sapiens; PDAC115T (basal subtype), 72 h
Source text: as §1, §2

[11] = test system: MiaPaCa-2 cells; experiment: Cell viability assay (PrestoBlue); type: cell-based, human; details: MiaPaCa-2, 72 h
Method: as §2

[12] = test system: NUPR1 nuclear translocation; experiment: NUPR1 nuclear translocation, immunofluorescence in MiaPaCa-2 cells; type: cell-based, human; details: 3 µM, 6 h (Figure 4)
Method: Cells (100000 cells/well) were seeded in 12-well plates on coverslips overnight and then treated with 3 μM concentration of each compound for […]. After fixation with 4% paraformaldehyde (Sigma-Aldrich, St. Quentin, Fallavier, France) for 15 min, cells were washed twice with 1x PBS and incubated 1 h with the following antibodies at 1:200 dilution: rabbit anti-NUPR1 primary antibody (homemade) or γH2AX primary antibody (ab26350, Abcam, Paris, France). After the washing steps, samples were incubated 1 h with secondary antibodies at 1:500 dilution (goat anti-rabbit Alexa Fluor 488, A27034, or goat anti-mouse Alexa Fluor 488, A28175, both from Thermo Fisher Scientific, Franklin, MA, USA). ProLong™ Gold Antifade Mountant with DAPI (P36931, Thermo Fisher Scientific) was used to stain the nucleus and seal the samples. Image acquisition of Alexa Fluor 488-derived fluorescence and DAPI staining was detected with an LSM 880 controlled by Zeiss Zen Black 63x lens. Co-localization analysis and measurements in both channels were performed by using the ImageJ Coloc 2 plugin (version 3.0.5).
MiaPaCa-2 cells were treated with representative ZZW-115-derived compounds (3 µM) for 6 h. […] DAPI staining was used to detect cell nuclei, and it was combined with the Alexa 488 fluorescence in the merged panel. […]

[13] = target: T1, NUPR1; set-up: method as in PMID 30920390; details: ITC; cited from earlier work
[14] = test system: PDAC001T cells; set-up: method as in PMID 30920390; details: control, previously obtained; cited from earlier work
[15] = test system: PDAC012T cells; set-up: method as in PMID 30920390; details: control, previously obtained; cited from earlier work
[16] = test system: PDAC021T cells; set-up: method as in PMID 30920390; details: control, previously obtained; cited from earlier work
[17] = test system: PDAC081T cells; set-up: method as in PMID 30920390; details: control, previously obtained; cited from earlier work
[18] = test system: PDAC082T cells; set-up: method as in PMID 30920390; details: control, previously obtained; cited from earlier work
[19] = test system: PDAC087T cells; set-up: method as in PMID 30920390; details: control, previously obtained; cited from earlier work
[20] = test system: PDAC088T cells; set-up: method as in PMID 30920390; details: control, previously obtained; cited from earlier work
[21] = test system: PDAC089T cells; set-up: method as in PMID 30920390; details: control, previously obtained; cited from earlier work
[22] = test system: PDAC115T cells; set-up: method as in PMID 30920390; details: control, previously obtained; cited from earlier work
[23] = test system: MiaPaCa-2 cells; set-up: method as in PMID 30920390; details: control, previously obtained; cited from earlier work
[24] = target: T1, NUPR1; set-up: method as in PMID 28054562; details: molecular scaffold of TFP; cited from earlier work

For `FC(F)(F)c1ccc2c(c1)N(CCCN1CCN(CCN3CCOCC3)CC1)c1ccccc1S2` [ZZW-132], the “N (stoichiometry)” value ([1]; pH 7.0) was 1.2 ± 0.1, the ΔG ([1]; pH 7.0) was −7.9 ± 0.1 kcal mol^–1 and the ΔH ([1]; pH 7.0) was 0.3 ± 0.3 kcal mol^–1. The “−TΔS” value ([1]; pH 7.0) was −8.2 ± 0.3 kcal mol^–1, the Ka ([1]; sodium phosphate 20 mM, pH 7.0, 2% DMSO) was 5.8 ± 0.4 M^–1 × 10^5 and the Kd ([1]; sodium phosphate 20 mM, pH 7.0, 2% DMSO, read-out: Kd (=1/Ka)) was ~1.7 µM and 1.7 µM. For the same molecule, the IC50 [2] was 12.5 µM, the IC50 [3] was 12.2 µM and the IC50 [4] was 16.5 µM. It also gave an IC50 [5] of 1.91 µM, an IC50 [6] of 21.1 µM and an IC50 [7] of 16.6 µM. For the same molecule, the IC50 [8] was 23.6 µM, the IC50 [9] was 29.1 µM and the IC50 [10] was 16.1 µM. The IC50 ([11]; Homo sapiens, MIA PaCa-2, 72 h) was about 1 µM, the IC50 [11] was 1.04 µM and the “ability to hamper NUPR1 nuclear translocation” value [12] was “worst effect in hampering the nuclear translocation efficiency”.
For `CN1CCN(CCCN2c3ccccc3Sc3ccc(C(F)(F)F)cc32)CC1` [TFP, trifluoperazine], the Ka [13] is listed as 1.9 ± 0.2 M^–1 × 10^5, the “N (stoichiometry)” value [13] is listed as 1.0 ± 0.1 and the ΔG [13] is listed as −7.2 ± 0.1 kcal mol^–1. The ΔH [13] was −1.1 ± 0.4 kcal mol^–1, the “−TΔS” value [13] was −6.1 ± 0.4 kcal mol^–1 and the IC50 [14] was 12.5 µM. For the same molecule, the IC50 [15] was 20.4 µM, the IC50 [16] was 23.5 µM and the IC50 [17] was 2.48 µM. The IC50 [18] was 21.5 µM, the IC50 [19] was 7.8 µM and the IC50 [20] was 15.9 µM. The IC50 [21] was 8.09 µM, the IC50 [22] was 10.1 µM and the IC50 [23] was 9.28 µM. For the same molecule, the calculated binding score [24] was “–7.0 kcal/mol”.
In the case of `CN(C)CCN1CCN(CCCN2c3ccccc3Sc3ccc(C(F)(F)F)cc32)CC1` [ZZW-115], the Ka [13] is listed as 4.7 ± 0.4 M^–1 × 10^5, the “N (stoichiometry)” value [13] is listed as 0.9 ± 0.1 and the ΔG [13] is listed as −7.7 ± 0.1 kcal mol^–1. The ΔH [13] was −0.4 ± 0.3 kcal mol^–1, the “−TΔS” value [13] was −7.3 ± 0.3 kcal mol^–1 and the IC50 [14] was 1.84 µM. The IC50 [15] was 2.44 µM, the IC50 [16] was 2.54 µM and the IC50 [17] was 0.84 µM. For the same molecule, the IC50 [18] was 2.36 µM, the IC50 [19] was 3.72 µM and the IC50 [20] was 5.29 µM. The IC50 [21] was 4.72 µM, the IC50 [22] was 2.21 µM and the IC50 [23] was 0.32 µM.

— paper PMC8533202, “Design of Inhibitors of the Intrinsically Disordered Protein NUPR1: Balance between Drug Affinity and Target Function” (Biomolecules, 2021)
